Source: patent publication US5700469A, “HIV-1 core protein fragments” (Medical Research Council, priority 1990, dated 1997)
Where two headings read alike, the source gives them in different places. Where no end group is shown, it is not given here.

What was measured:
[1] = tested on: human leucocyte antigen (HLA) class I molecule; experiment: CTL assay: lysis of 51-chromium labelled, HLA-matched B lymphoblastoid target cells sensitized with peptide; format: cell-based; conditions: for HLA restriction of the peptide (through one or more of the antigens): HLA restrictions not yet fully worked out
Procedure: Peptides in accordance with the invention can also be used for diagnostic purposes. […] Briefly, fresh peripheral blood mononuclear cells (or lymphocytes obtained from biopsy material) are prepared and added at ratios of 50:1, 25:1 and 10:1 to 10^4 51 -chromium labelled B lymphoblastoid cells matched for the relevant HLA molecules. The HLA type of patient is determined in known manner by tissue typing, and B lymphoblastoid cells obtained from a donor of known HLA type (again determined in known manner by tissue typing) and transformed with Epstein Barr using known techniques. A peptide in accordance with the invention, which interacts with the relevant HLA molecule, is also added to the cells in a concentration of 10 to 100 u molar. After 4 hours incubation the supernatant is removed and the released ^51 -chromium measured. The ^51 -chromium released is compared to that released by incubation of labelled cells in detergent, which gives a maximum value, and released by labelled cells incubated in medium alone, which gives a minimum value. If lysis (defined by ^51 -chromium released of at least two times the minimum value) is observed it means that there are cytotoxic T lymphocytes in the patients' mononuclear cells and these are likely to be indicative of infection with HIV.

[2] = tested on: human leucocyte antigen (HLA) class I molecule; conditions: disclosed in prior application EP 0346022; cited from earlier work

Substance	HLA restriction of the peptide (through one or more of the antigens) [1]	further results
CVGGPGHKARVL [p24-23, NH2 -cysteine-valine-glycine-glycine-proline-glycine-histidine-lysine-alanine- arginine-valine-leucine-COOH]	LA-A1 or B7 or B8	–
VHQAISPRTLNAWVKC [p24-2, NH2 -valine-histidine-glutamine-alanine-isoleucine-serine-proline-arginine-threonine-leucine-asparagine-alanine -tryptophan-valine-lysine-cysteine-COOH]	HLA-A23 or A30 or B8	–
VQNANPDCKTILKALY [p24-20, NH2 -valine-glutamine-asparagine-alanine-asparagine-proline-aspartic acid-cysteine-lysine-threonine-isoleucine-leucine-lysine-alanine-leucine-tyrosine-COOH]	–	HLA class I molecule with which the peptide interacts specifically [1]: HLA B8; recognition of the peptide by a seropositive donor ([1]; seropositive donor, HLA type as printed): recognised by a seropositive donor of the HLA type HLA-A3, 29B44, 14
NH2 -lysine-arginine-tryptophan-isoleucine-isoleucine-leucine-glycine-leucine- asparagine-lysine-isoleucine-valine-arginine-methionine-tyrosine -cysteine-COOH [p24-14]	–	HLA class I molecule with which the peptide interacts specifically [2]: HLA B27
LEEMMTACQGVGGPGY [p24-22, NH2 -leucine-glutamic acid-glutamic acid-methionine-methionine-threonine-alanine-cysteine-glutamine-glycine -valine-glycine-glycine-proline-glycine-tyrosine-COOH]	HLA-A3 or A29 or B44 or B14	–
DLNTMLNTVGGHQAAC [p24-6, NH2 -aspartic acid-leucine-asparagine-threonine-methionine-leucine-asparagine-threonine- valine-glycine-glycine -histidine-glutamine-alanine-alanine-cysteine-COOH]	HLA-A3 or A29 or B44 or B14	–
